Our source for the Ki and Selectivity values is ChEMBL document CHEMBL1135367, “Evaluation of isotryptamine derivatives at 5-HT(2) serotonin receptors” (Bioorg Med Chem Lett, 2002).

Structures are written as SMILES.

Assay [1] has as its target T1, 5-hydroxytryptamine receptor 2C (Homo sapiens, UniProt P28335).
T1 sequence (P28335 whole entry): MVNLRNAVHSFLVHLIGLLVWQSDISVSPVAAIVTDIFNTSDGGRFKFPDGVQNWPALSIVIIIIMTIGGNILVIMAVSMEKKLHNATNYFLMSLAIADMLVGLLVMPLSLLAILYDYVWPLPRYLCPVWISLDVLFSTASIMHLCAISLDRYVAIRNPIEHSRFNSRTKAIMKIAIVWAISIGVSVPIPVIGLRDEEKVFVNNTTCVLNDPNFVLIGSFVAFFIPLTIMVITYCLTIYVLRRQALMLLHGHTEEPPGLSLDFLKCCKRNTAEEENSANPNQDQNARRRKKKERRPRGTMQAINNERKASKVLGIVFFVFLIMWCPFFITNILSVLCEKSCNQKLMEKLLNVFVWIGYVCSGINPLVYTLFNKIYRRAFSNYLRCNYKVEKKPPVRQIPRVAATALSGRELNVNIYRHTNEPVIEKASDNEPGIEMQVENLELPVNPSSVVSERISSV
The assay is described as follows: Binding affinity towards human 5-hydroxytryptamine 2C receptor.

Assay [2] deals with T2, 5-hydroxytryptamine receptor 2A (Homo sapiens, UniProt P28223). The assay is described as follows: Displacement of [3H]ketanserin from human 5-hydroxytryptamine 2A receptor.
Assay [3] concerns the target T2, 5-hydroxytryptamine receptor 2A. The assay is described as follows: Displacement of [3H]DOB from human 5-hydroxytryptamine 2A receptor.
The target is the same in assay [4]. Description: Tested for binding affinity towards 5-hydroxytryptamine 2A receptor.
The target in assay [5] is Serotonin 2 receptors; 5-HT2a & 5-HT2c (Homo sapiens) (UniProt P28223+P28335). Description: Relative affinity for human 5-HT2C and 5-HT2A receptors. The assay is classed as protein assay.
In assay [6] the target is T1, 5-hydroxytryptamine receptor 2C. Description: Tested for binding affinity towards human 5-hydroxytryptamine 2C receptor using [3H]DOB as radioligand.
For assay [7] the target is unchanged. The assay is described as follows: Tested for binding affinity towards human 5-hydroxytryptamine 2C receptor using [3H]5-HT as radioligand.
Assay [8] has as its target T2, 5-hydroxytryptamine receptor 2A. The assay is described as follows: Tested for binding affinity towards human 5-hydroxytryptamine 2A receptor using [3H]DOB as radioligand.
Assay [9] concerns the target T3, 5-hydroxytryptamine receptor 2A (Rattus norvegicus, UniProt P14842). The assay is described as follows: Tested for binding affinity towards rat 5-hydroxytryptamine 2A receptor using [3H]ketanserin as radioligand.
Assay [10] concerns the target T1, 5-hydroxytryptamine receptor 2C. Description: Tested for binding affinity towards human 5-hydroxytryptamine 2C receptor using [3H]mesulergine as radioligand.
The target of assay [11] is T2, 5-hydroxytryptamine receptor 2A. Description: Tested for binding affinity towards human 5-hydroxytryptamine 2A receptor using [3H]5-HT as radioligand.
The target of assay [12] is T3, 5-hydroxytryptamine receptor 2A. Description: Tested for binding affinity towards rat 5-hydroxytryptamine 2A receptor using [3H]DOB as radioligand.
The target in assay [13] is T1, 5-hydroxytryptamine receptor 2C. The assay is described as follows: Tested for binding affinity towards 5-HT2c receptor.

T2 sequence (P28223 whole entry): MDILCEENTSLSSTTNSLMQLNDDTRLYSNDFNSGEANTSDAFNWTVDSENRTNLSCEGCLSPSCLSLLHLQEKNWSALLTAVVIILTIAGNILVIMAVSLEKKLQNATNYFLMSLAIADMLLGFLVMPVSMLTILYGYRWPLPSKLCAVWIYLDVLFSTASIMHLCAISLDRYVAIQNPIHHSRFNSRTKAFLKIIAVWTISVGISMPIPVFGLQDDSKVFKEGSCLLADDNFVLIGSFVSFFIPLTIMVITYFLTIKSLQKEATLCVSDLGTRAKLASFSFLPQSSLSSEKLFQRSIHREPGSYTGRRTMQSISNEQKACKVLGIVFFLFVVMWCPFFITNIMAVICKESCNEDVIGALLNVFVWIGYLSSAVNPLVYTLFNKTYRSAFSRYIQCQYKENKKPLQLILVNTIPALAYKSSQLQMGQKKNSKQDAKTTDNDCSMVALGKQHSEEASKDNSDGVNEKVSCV
Serotonin 2 receptors; 5-HT2a & 5-HT2c (Homo sapiens), sequence (P28223 whole entry, looked up, one chain of several): as the sequence (P28223 whole entry) above
T3 sequence (P14842 whole entry): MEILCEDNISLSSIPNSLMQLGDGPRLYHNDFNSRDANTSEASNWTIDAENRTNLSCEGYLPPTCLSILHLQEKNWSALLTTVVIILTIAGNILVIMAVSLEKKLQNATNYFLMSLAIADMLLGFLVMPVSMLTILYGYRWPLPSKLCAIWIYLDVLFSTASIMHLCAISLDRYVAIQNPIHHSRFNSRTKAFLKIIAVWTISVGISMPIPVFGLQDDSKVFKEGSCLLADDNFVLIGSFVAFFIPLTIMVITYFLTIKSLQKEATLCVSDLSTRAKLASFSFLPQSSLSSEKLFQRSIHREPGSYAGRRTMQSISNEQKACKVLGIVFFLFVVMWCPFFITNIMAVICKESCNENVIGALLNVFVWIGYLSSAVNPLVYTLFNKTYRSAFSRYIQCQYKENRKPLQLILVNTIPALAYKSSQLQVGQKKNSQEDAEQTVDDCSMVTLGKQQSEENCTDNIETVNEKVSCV

Consider `COc1ccc2c(ccn2CCN(C)C)c1`, for which the Ki in [1], in [2] and in [3] was greater than 10000 nM throughout.
Take `CC(CN)n1ccc2ccc3ccccc3c21` (stereo not given): the Ki in assay [4] is 4300 nM; in [1], greater than 10000 nM.
Consider `COc1ccc2cc3n(c2c1)CCNC3`, for which the Ki in assay [1] was determined as 5160 nM; in [2] it was 5190 nM; in [3], 1300 nM. Moreover, in assay [5], the Selectivity was 4.
For `COc1ccc2c(c1)cc1n2CCNC1`, in that order: 9930 nM, 5830 nM, 930 nM and 10.7.
For `Clc1cccc2cc3n(c12)CCNC3`, in that order: 520 nM, 630 nM, 330 nM and 1.6.
Consider `c1ccc2c(c1)cc1n2CCNC1`, for which the Ki in assay [1] is 4780 nM; in assay [2], 1040 nM; in [3], 635 nM. Besides, the Selectivity in assay [5] came to 7.5.
For `COc1c2n(c3ccc(Cl)cc13)CCNC2`, in that order: 330 nM, 130 nM, 60 nM and 5.5.
For `CN(C)CCn1ccc2cc(F)c(F)cc21`, in that order: 300 nM, 640 nM, 230 nM and 1.3.
Consider `C[C@H](N)Cn1ccc2cc(F)c(F)cc21`, for which the Ki in assay [6] stood at 3.9 nM; in assay [7] it was 3.8 nM; in assay [1], 85 nM; in [8] it was 39 nM; in assay [9], 320 nM; in assay [10] it was 85 nM. For the same compound, the Ki was determined as 12 nM in assay [11] and 15 nM in assay [12]. Also, the Selectivity in assay [5] was 5.7.
For the compound `Clc1ccc2c(c1)cc1n2CCNC1`, the results for the Ki in [1], in assay [2] and in assay [3] were 1460 nM, 1670 nM and 320 nM, respectively. This compound also gave a Selectivity in assay [5] of 4.6.
Turning to `COc1ccc2ccn(CCN(C)C)c2c1`, the figures for the Ki in assay [1] and in assay [2] were 490 nM and 1040 nM, respectively.
Consider `CN(C)CCn1ccc2ccccc21`, for which the Ki in assay [1] was 720 nM; in assay [2] it was 600 nM; in assay [3], 650 nM. This compound showed a Selectivity in assay [5] of 1.1.
Consider `CC(N)Cn1ccc2ccc3ccccc3c21` (stereo not given), for which the inhibitory constant (Ki) in [4] worked out at 38 nM; in assay [1], 42 nM.
Consider `c1ccc2c(c1)nc1n2CCNC1`, for which the Ki in assay [1], in assay [2] and in [3] was greater than 10000 nM throughout.
As to `Clc1ccc2cc3n(c2c1)CCNC3`, the values for the Ki in assay [1], in assay [2] and in [3] were 560 nM, 58 nM and 80 nM, respectively. This compound registered a Selectivity in assay [5] of 7.
`CC(N)Cc1c[nH]c2ccc3ccccc3c12` (stereo not given): the Ki came out at 3 nM in assay [4] and 9 nM in assay [1].
`COc1cccc2cc3n(c12)CCNC3`: the Ki was 1990 nM in assay [1], 1000 nM in assay [2] and 300 nM in assay [3]. For the same compound, the Selectivity in [5] turned out to be 6.6.
Consider `Cc1c2n(c3ccc(Cl)cc13)CCNC2`, for which the Ki in assay [2] was 1250 nM; in assay [13] it was 450 nM.
